From patent publication US20240262803A1, “COMPOUNDS, COMPOSITIONS AND METHODS OF TREATING DISORDERS” (Chungdu Anticancer Bioscience Ltd, priority 2021, published 2024) come the findings set out here.

Assay [1] deals with RPEMYC^H2B-GFP cells. Briefly: Mechanism-informed phenotypic screening assay (mitotic arrest, polyploidy; GE IN-Cell Analyzer 2000). As to conditions: 20 nM to 20 μM, 24, 48 or 72 hours; for minimal effective concentration: read-out: Min. Effective conc. for polyploidy (≥5%). The assay is classed as cell-based. The procedure: We have Previously Developed a Mechanism-Informed Phenotypic Screening Assay to identify novel antimitotic agents (Li et al. 2019). Equipped with a prior understanding of the versatile functions of the chromosomal passenger protein (CPP) complex in orchestrating karyokinesis and cytokinesis, the screening assay is to score for phenotypes typically seen when the CPP complex is disabled. Specifically, the parameters for a positive hit are a temporary elevation of mitotic index (MI) at 24 hours of drug treatment and an accumulation of polyploid cells at 48 hours of drug treatment, indicative of mitotic arrest and cytokinetic failure respectively. These parameters exclude compounds that elicit only a prolonged arrest of cells in mitosis, a phenotype typically provoked by spindle toxins. The screening procedure is briefly summarized here. RPEMYC^H2B-GFP cells engineered to express a Histone 2B-EGFP fusion protein were passaged as batches of 96-well plates, 18-24 hours before exposure to the chemical compounds of the present disclosure at concentrations from 20 nM to 20 μM. At 24, 48 or 72 hours after initiation of treatment, cells were analyzed for either an arrest in mitosis or a change in DNA content by GE IN-Cell Analyzer 2000. As set forth in table 2 below, a value of greater than or equal to […] and less than or equal to 1.0 μM is marked e “A”; a value greater than […] and less than or equal to 10.0 μM is marked “B”; a value greater than 10.0 μM and less than or equal to 30.0 μM is marked “C”; and a value greater than 30.0 μM is marked “D.”

Assay [2] relates to RPEMYC^H2B-GFP cells. Described as above. It is filed as cell-based. As to conditions: 20 nM to 20 μM, 24, 48 or 72 hours, read-out: Mitotic Arrest (≥5%).

Read-outs that look alike come from different tables or passages of the source. Where only a bound is given, the exact number is not on record here.

Take `COc1cc(Oc2ncccc2-c2ccnc(N)n2)cc(C(=O)O)c1` [Compound 24, 3-((3-(2-aminopyrimidin-4-yl)pyridin-2-yl)oxy)-5-methoxybenzoic acid]: the minimal effective concentration in assay [1] and in assay [2] was more than 30 µM each time.
Turning to `Cc1noc(-c2cc(Oc3ncccc3-c3ccnc(N)n3)cc(-c3nc(C)no3)c2)n1` [Compound 22, 4-(2-(3,5-bis(3-methyl-1,2,4-oxadiazol-5-yl)phenoxy)pyridin-3-yl)pyrimidin-2-amine], the minimal effective concentration in assay [1] and in assay [2] was more than 30 µM throughout.
As for `COc1cc(OC)cc(Oc2nccnc2-c2cc(OC)cc(OC)c2)c1` [Compound 59, 2-(3,5-dimethoxyphenoxy)-3-(3,5-dimethoxyphenyl)pyrazine], the minimal effective concentration in assay [1] and in assay [2] was 0.001 to 10 µM throughout.
`COc1cc(OC)cc(Oc2ncccc2-c2ccccc2)c1` [Compound 55, 2-(3,5-dimethoxyphenoxy)-3-phenylpyridine]: the minimal effective concentration in assay [1] and in assay [2] was 0.001 to 10 µM each time.
Regarding `COc1cc(OC)cc(Oc2ncccc2-c2cc(OC)cc(OC)c2)c1` [Compound 58, 2-(3,5-dimethoxyphenoxy)-3-(3,5-dimethoxyphenyl)pyridine], the minimal effective concentration in assay [1] and in assay [2] was 1 µM in each case.
Regarding `CNC(=O)c1cc(OC)cc(Oc2ncccc2-c2cc(C)nc(C)c2)c1` [Compound 99, 3-((2′,6′-dimethyl-[3,4′-bipyridin]-2-yl)oxy)-5-methoxy-N-methylbenzamide], the minimal effective concentration in assay [1] and in assay [2] was 1 µM each time.
For the compound `CNC(=O)c1cc(Oc2ncccc2-c2ccnc(C)c2)cc(-n2cccn2)c1` [Compound 88, N-methyl-3-((2′-methyl-[3,4′-bipyridin]-2-yl)oxy)-5-(1H-pyrazol-1-yl)benzamide], the minimal effective concentration in assay [1] and in assay [2] was 1 µM in each case.
Take `COc1cc(Oc2ncccc2-c2ccnc(C)c2)cc(C(=O)NC2CC2)c1` [Compound 98, N-cyclopropyl-3-methoxy-5-((2′-methyl-[3,4′-bipyridin]-2-yl)oxy)benzamide]: the minimal effective concentration in assay [1] and in assay [2] was 1 µM throughout.
With `CNC(=O)c1cc(OC)cc(Oc2ncccc2-c2cc(C)ncn2)c1` [Compound 97, 3-methoxy-N-methyl-5-((3-(6-methylpyrimidin-4-yl)pyridin-2-yl)oxy)benzamide], the minimal effective concentration in assay [1] and in assay [2] was 1 µM each time.
As to `COc1cc(OC)cc(Oc2ncccc2-c2ccnc(Cl)n2)c1` [Compound 84, 2-chloro-4-(2-(3,5-dimethoxyphenoxy)pyridin-3-yl)pyrimidine], the minimal effective concentration in assay [1] was more than 30 µM; in assay [2], 10 to 30 µM.
Consider `CNC(=O)c1cc(OC)cc(Oc2ncccc2-c2ccnc(C(F)(F)F)c2)c1` [Compound 66, 3-methoxy-N-methyl-5-((2′-(trifluoromethyl)-[3,4′-bipyridin]-2-yl)oxy)benzamide], for which the minimal effective concentration in assay [1] and in assay [2] was 1 µM each time.
As for `COc1cc(Oc2ncccc2-c2ccncc2)cc(-c2nc(C)no2)c1` [Compound 11, 5-(3-([3,4′-bipyridin]-2-yloxy)-5-methoxyphenyl)-3-methyl-1,2,4-oxadiazole], the minimal effective concentration in assay [1] and in assay [2] was 1 µM in each case.
In the case of `CNC(=O)c1cc(Oc2ncccc2-c2ccncc2)cc(-c2cnn(C)c2)c1` [Compound 90, 3-([3,4′-bipyridin]-2-yloxy)-N-methyl-5-(1-methyl-1H-pyrazol-4-yl)benzamide], the minimal effective concentration in assay [1] and in assay [2] was 1 µM in each case.
For the compound `CCOc1cc(Oc2ncccc2-c2ccncc2)cc(C(=O)NC)c1` [Compound 6, 3-([3,4′-bipyridin]-2-yloxy)-5-ethoxy-N-methylbenzamide], the minimal effective concentration in assay [1] and in assay [2] was 1 µM in each case.
For `CNC(=O)c1cc(Oc2ncccc2-c2ccnc(C)c2)cc(OC2CCOC2)c1` (stereo not shown) [Compound 96, N-methyl-3-((2′-methyl-[3,4′-bipyridin]-2-yl)oxy)-5-((tetrahydrofuran-3-yl)oxy)benzamide], the minimal effective concentration in assay [1] and in assay [2] was 1 µM each time.
Take `COc1cc(Oc2ncccc2-c2ccncc2)cc(C(=O)NC2CC2)c1` [Compound 100, 3-([3,4′-bipyridin]-2-yloxy)-N-cyclopropyl-5-methoxybenzamide]: the minimal effective concentration in assay [1] and in assay [2] was 1 µM each time.
Take `COC(=O)c1cc(Oc2ncccc2-c2ccccc2)cc(C(=O)OC)c1` [Compound 56, dimethyl 5-((3-phenylpyridin-2-yl)oxy)isophthalate]: the minimal effective concentration in assay [1] and in assay [2] was 1 µM in each case.
As for `CCOc1cc(Oc2ncccc2-c2ccnc(C(F)(F)F)c2)cc(C(=O)NC)c1` [Compound 67, 3-ethoxy-N-methyl-5-((2′-(trifluoromethyl)-[3,4′-bipyridin]-2-yl)oxy)benzamide], the minimal effective concentration in assay [1] and in assay [2] was 0.001 to 10 µM each time.
Regarding `COc1cc(OC)cc(Oc2nccnc2-c2cccnc2)c1` [Compound 50], the minimal effective concentration in assay [1] and in assay [2] was 1 µM in each case.
As for `COc1cc(OC)cc(Oc2ncccc2-c2ccnc(Cl)c2)c1` [Compound 44, 2′-chloro-2-(3,5-dimethoxyphenoxy)-3,4′-bipyridine], the minimal effective concentration in assay [1] and in assay [2] was 1 µM throughout.
As to `COc1cc(OC)cc(Oc2ncccc2-c2cc(OC)ncn2)c1` [Compound 60, 4-(2-(3,5-dimethoxyphenoxy)pyridin-3-yl)-6-methoxypyrimidine], the minimal effective concentration in assay [1] and in assay [2] was 1 µM throughout.
On to `COc1cc(OC)cc(Oc2nccnc2-c2ccncc2)c1` [Compound 15, 2-(3,5-dimethoxyphenoxy)-3-(pyridin-4-yl)pyrazine], for which the minimal effective concentration in assay [1] and in assay [2] was 1 µM each time.
For the compound `COc1cc(OC)cc(Oc2nccnc2-c2ccccc2)c1` [Compound 57, 2-(3,5-dimethoxyphenoxy)-3-phenylpyrazine], the minimal effective concentration in assay [1] and in assay [2] was 0.001 to 10 µM in each case.
On to `CCOCCOc1cc(-c2cccnc2Oc2cc(NC(C)=O)cc(OC)c2)ccn1` [Compound 87, N-(3-((2′-(2-ethoxyethoxy)-[3,4′-bipyridin]-2-yl)oxy)-5-methoxyphenyl)acetamide], for which the minimal effective concentration in assay [1] and in assay [2] was 1 µM each time.
On to `COc1cc(Oc2ncccc2-c2ccnc(C)c2)cc(O[C@H]2CCOC2)c1` [Compound 95, (S)-2-(3-methoxy-5-((tetrahydrofuran-3-yl)oxy)phenoxy)-2′-methyl-3,4′-bipyridine], for which the minimal effective concentration in assay [1] and in assay [2] was 1 µM each time.
As to `CNC(=O)c1cc(OC)cc(Oc2nccnc2-c2ccncc2)c1` [Compound 18, 3-methoxy-N-methyl-5-((3-(pyridin-4-yl)pyrazin-2-yl)oxy)benzamide], the minimal effective concentration in assay [1] and in assay [2] was 1 µM each time.
Turning to `COc1cc(NC(C)=O)cc(Oc2ncccc2-c2ncccn2)c1` [Compound 93, N-(3-methoxy-5-((3-(pyrimidin-2-yl)pyridin-2-yl)oxy)phenyl)acetamide], in assay [1], the “Min. Effective conc. for polyploidy (≥5%)” value was “inactive” and the “Mitotic Arrest (≥5%)” value is “inactive”.
In the case of `CNC(=O)c1cc(OC)cc(Oc2ncccc2-c2cncnc2)c1` [Compound 91, 3-methoxy-N-methyl-5-((3-(pyrimidin-5-yl)pyridin-2-yl)oxy)benzamide], the minimal effective concentration in assay [1] and in assay [2] was 1 µM in each case.
Regarding `CNc1cc(-c2cccnc2Oc2cc(OC)cc(OC)c2)ncn1` [Compound 64, 6-(2-(3,5-dimethoxyphenoxy)pyridin-3-yl)-N-methylpyrimidin-4-amine], the minimal effective concentration in assay [1] and in assay [2] was 0.001 to 10 µM throughout.
Regarding `COc1cc(OC)cc(Oc2cncc(-c3ccccc3)n2)c1` [Compound 81, 2-(3,5-dimethoxyphenoxy)-6-phenylpyrazine], the minimal effective concentration in assay [1] and in assay [2] was 0.001 to 10 µM in each case.
For the compound `CCOCCOc1cc(-c2cccnc2Oc2cc(OC)cc(-n3cccn3)c2)ccn1` [Compound 86, 2′-(2-ethoxyethoxy)-2-(3-methoxy-5-(1H-pyrazol-1-yl)phenoxy)-3,4′-bipyridine], the minimal effective concentration in assay [1] and in assay [2] was 1 µM throughout.
With `COc1cc(OC)cc(Oc2ncccc2-c2ccnc(N)c2)c1` [Compound 61, 2-(3,5-dimethoxyphenoxy)-[3,4′-bipyridin]-2′-amine], the minimal effective concentration in assay [1] and in assay [2] was 1 µM in each case.
